# Measurements published in US20230278972A1, “SUBSTITUTED HALOALKYL SULFONANILIDE HERBICIDES” (FMC Corporation, priority 2020, published 2023).
# How the values were obtained:
# Format in all cases: in vivo
# corn (Zea mays) [1] = assay: Test A1 preemergence, corn
# Procedure, shortened: (§1)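 Test compounds were formulated in a non-phytotoxic solvent mixture containing a surfactant. For preemergence, seeds sown in a loam soil–sand blend received a directed soil spray. For postemergence, potted plants in the same soil, 2 to 10 cm tall at the one- to two-leaf stage, were sprayed.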
# [2] = tested on: ragweed (common ragweed, Ambrosia artemisiifolia); assay: Test A1 postemergence, ragweed; settings: Postemergence
# Procedure, shortened: as §1
# [3] = tested on: galium (catchweed bedstraw, Galium aparine); assay: Test A1 postemergence, galium; settings: Postemergence
# Procedure, shortened: (§2)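 Plants grown in pots of loam/sand mix; preemergence = soil-directed spray on seeded pots, postemergence = spray at 1–2 leaves, height 2–10 cm; test chemicals formulated in non-phytotoxic solvent with surfactant.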
# corn (Zea mays) [4] = assay: Test A1 postemergence, corn; settings: Postemergence
# Procedure, shortened: as §2
# soybean (Glycine max) = assay: Test A1 preemergence, soybean
# Procedure, shortened: as §2
# [5] = tested on: Foxtail, Giant (giant foxtail, Setaria faberi); assay: Test A1 preemergence, Foxtail, Giant
# Procedure, shortened: as §2
# rice (Oryza sativa) = assay: Test B1 flooded paddy test, rice; settings: 250 g ai/ha, Flood, applied to paddy water, 2-leaf stage, visually evaluated after 10 to 14 days
# Excerpt: (§3) A dash (-) response means no test result.
# [6] = tested on: ducksalad (Heteranthera limosa); assay: Test B1 flooded paddy test, ducksalad; settings: 250 g ai/ha, Flood, applied to paddy water, 2-leaf stage, visually evaluated after 10 to 14 days
# Excerpt: as §3
# [7] = tested on: Ryegrass, Italian (Italian ryegrass, Lolium multiflorum); assay: Test A1 preemergence, Ryegrass, Italian
# Procedure, shortened: as §2
# [8] = 31 g ai/ha, 0 to 100 scale (0 no effect, 100 complete control)
# [9] = 125 g ai/ha, 0 to 100 scale, 0 no effect, 100 complete control
# [10] = 31 g ai/ha, 0 to 100 scale (0 no effect, 100 complete control), 10 days
Compound,"Plant response rating, Corn (corn (Zea mays) [1]; [8])","Plant response rating, Corn (corn (Zea mays) [1]; [9])","Plant response rating, Ragweed [2, 10]","Plant response rating, Ragweed ([2]; 125 g ai/ha, 0 to 100 scale)","Plant response rating, Galium [3, 10]","Plant response rating, Galium ([3]; 125 g ai/ha, 0 to 100 scale)","Plant response rating, Corn (corn (Zea mays) [4]; [10])","Plant response rating, Corn (corn (Zea mays) [4]; 125 g ai/ha, 0 to 100 scale)","Plant response rating, Soybean (soybean (Glycine max); [8])","Plant response rating, Soybean (soybean (Glycine max); [9])","Plant response rating, Foxtail, Giant [5, 8]","Plant response rating, Foxtail, Giant [5, 9]","Plant response rating, Rice (0 to 100 scale, 0 is no effect, 100 is complete control) (rice (Oryza sativa))","Plant response rating, Ducksalad (0 to 100 scale, 0 is no effect, 100 is complete control) [6]","Plant response rating, Ryegrass, Italian [7, 8]","Plant response rating, Ryegrass, Italian [7, 9]"
"Cc1c(C(=O)N2CCOCC2)cc(N(COC(=O)C(C)(C)C)S(=O)(=O)C(F)(F)F)c(C)c1C [Compound 324, [[(Trifluoromethyl)sulfonyl][2,3,4-trimethyl-5-(4-morpholinylcarbonyl)phenyl]amino]methyl 2,2-dimethylpropanoate]",20,40,70,70,50,80,30,30,20,60,90,100,0,80,20,100
CCOC(=O)N(c1cc(C(=O)N2CCOCC2)c(C)c(C)c1C)S(=O)(=O)C(F)(F)F [Compound 325],0,40,0,70,40,90,10,30,0,60,30,100,15,95,40,90
Cc1c(NS(=O)(=O)C(F)(F)F)cc(C(=O)N2CCCCC2)c(C)c1C [Compound 326],0,90,60,80,70,100,0,0,40,90,100,100,0,85,20,70
Cc1c(NS(=O)(=O)C(F)(F)F)cc(C(=O)N2CC(C)OC(C)C2)c(C)c1C (stereo not shown) [Compound 327],0,60,70,90,100,100,10,40,30,90,100,100,0,85,40,50
Cc1c(NS(=O)(=O)C(F)(F)F)cc(C(=O)N2CC(C)OC(C)C2)c(C)c1C (stereo not shown) [Compound 328],10,60,40,70,80,100,0,50,50,90,20,100,0,90,30,100
"Cc1c(C(=O)N2CCCCC2)cc(N(COC(=O)C(C)(C)C)S(=O)(=O)C(F)(F)F)c(C)c1C [Compound 329, [[(Trifluoromethyl)sulfonyl][2,3,4-trimethyl-5-(1-piperidinylcarbonyl)phenyl]amino]methyl 2,2-dimethylpropanoate]",0,0,40,70,50,80,0,0,0,0,30,50,20,60,0,0
Cc1c(C(=O)N2C[C@@H](C)O[C@@H](C)C2)cc(N(COC(=O)C(C)(C)C)S(=O)(=O)C(F)(F)F)c(C)c1C [Compound 331],0,0,70,80,60,90,10,50,0,10,0,70,0,80,0,0
CCOC(=O)N(c1cc(C(=O)N2C[C@@H](C)O[C@@H](C)C2)c(C)c(C)c1C)S(=O)(=O)C(F)(F)F [Compound 332],0,10,80,80,80,90,0,50,20,70,100,100,0,80,0,20
Cc1c(C(=O)N2CCCCC2)cc(NS(=O)(=O)C(F)(F)F)c(Cl)c1F [Compound 333],0,0,0,80,70,90,0,0,40,60,30,100,0,70,30,50
Cc1c(NS(=O)(=O)C(F)(F)F)cc(C2=NOC3CCCC23)c(C)c1C (stereo not shown) [Compound 335],0,60,50,80,50,80,0,0,30,40,60,100,45,70,0,60
"Cc1c(C2=NO[C@@H]3CCC[C@H]23)cc(N(COC(=O)C(C)(C)C)S(=O)(=O)C(F)(F)F)c(C)c1C [Compound 336, [[(Trifluoromethyl)sulfonyl][2,3,4-trimethyl-5-[(3aR,6aR)-3a,5,6,6a-tetrahydro-4H-cyclopent[d]isoxazol-3-yl]phenyl]amino]methyl 2,2-dimethylpropanoate]",0,0,50,80,60,100,0,0,0,0,20,80,45,75,30,30
C#CCN(C)C(=O)c1cc(NS(=O)(=O)C(F)(F)F)c(Cl)c(F)c1C [Compound 337],0,70,50,90,70,100,30,40,40,90,20,100,25,65,30,100
COCC1CC(c2cc(N(COC(=O)C(C)(C)C)S(=O)(=O)C(F)(F)F)c(C)cc2C)=NO1 (stereo not shown) [Compound 338],10,50,30,70,50,50,10,30,0,20,10,90,20,40,30,30
